Source: patent publication US20220378681A1, “SKIN CARE FORMULATION WITH LIPOPHILIC PEPTIDES” (DECIEM BEAUTY GROUP INC., priority 2019, published 2022)

Assay: Solubility of SYM3D in oils
Assay type: physicochemical
Experimental: Phase B may be prepared by adding MCT oil into a mixing vessel, and incorporating further ingredients such as one or more oil-soluble active ingredients. The ingredients are mixed at room temperature at a speed of 3000 RPM, with side sweep scraping at 15 RPM. Samples should be taken via the valve at the bottom of the kettle and tested by centrifugation, and the solution also visibly inspected to ensure complete incorporation of the second ingredient. Centrifugation of a sample of the mixture is an optional step to ensure complete dissolution of the second ingredient.
Amounts of SYM3D that would be effective in the invented formulation range from 0.1 to 1% by weight of the overall formulation. The specific amount used by the inventors in a sample formulation was 0.5%. SYM3D is selectively soluble in certain oils. […] It is therefore important to include an oil component such as MCT oil which is compatible with SYM3D if it is being used.

solubility in MCT oil (MCT oil, room temperature, 3000 RPM mixing): can be solubilized
solubility in squalane (squalane): not soluble
SMILES: CCCc1cc(OC)c2c(c1)C(C)C(c1ccc(O)c(OC)c1)O2 (centres unmarked) [SYM3D, dihydrodehydrodiisoeugenol]
